# Measurements taken from patent US20060063810A1, “Combination treatment for impaired motor function in parkinson's disease” (priority 2003, published 2006).
# How the values were obtained:
# [1] = test system: patients suffering from different types of tremors; details: human, in vivo; cited from earlier work
# [2] = test system: parkinsonian patients; details: in vivo; cited from earlier work
# [3] = test system: Parkinson's disease; details: in vivo; cited from earlier work
# [4] = test system: dyskinesia; details: normal therapeutic (anti-anxiolytic) levels; cited from earlier work
# [5] = test system: single Parkinson's patient; details: citalopram added to the anti-Parkinson's drug regime of a single patient; cited from earlier work
# [6] = test system: Parkinson Disease patients suffering from severe bradykinesia and motor fluctuations (dyskinesias) induced by L-Dopa therapy; experiment: Double-blind, randomized, placebo-controlled clinical study of AMN lead-in followed by add-on CIT (Example 9, Method B); assay type: in vivo, human; details: patients 1, 2 and 4; first four visits; three weeks of treatment with amantadine only
# Description: The study is conducted in a double-blind, randomized, placebo-controlled, parallel-group design, with 2 treatment phases: 3 weeks open label, up -titration amantadine lead-in phase, follow by a 6 weeks add-on citalopram phase; performed in Parkinson Disease patients suffering from severe bradykinesia and motor fluctuations—dyskinesias—induced by L-Dopa therapy.
# Amantadine Hydrochloride: 50 mg arnantadine hydrochloride is administered as a b.i.d. regimen during 1 week. Up titration to 100 mg amantadine hydrochloride administered as a b.i.d. regimen during the second week. Up titration to 150 mg amantadine hydrochloride administered as a b.i.d. regimen during the third week. […]
# The total score for UPDRS subscale IV is employed to evaluate the severity and characteristics of L-Dopa induced dyskinesias. The total score is calculated as the sum of all scores assigned in the dyskinesia items: 32, 33, 34 and 35; the clinical fluctuations items (calculated as the sum of all scores assigned in items 36, 38 and 39). Items 32, 33, 34 and 35 are recorded according to historical information and item 33 is also modified by office examination. […]
# The total score of the subscale III of the UPDRS is employed to examine parkinsonian symptoms. Motor functionality is assessed as the total motor score calculated as the sum of all scores assigned in items 18, 19, 20, 21, 22, 23, 24, 25, 26, 27, 28, 29, 30 and 31. […]
# [7] = test system: HD patients; details: cited from earlier work
compound,measurement,setting,value
O=c1n(CCCN2CCN(c3cccc(Cl)c3)CC2)nc2ccccn12 [trazodone],tremors,[1],significantly reduced tremors
"CC(C)(C)N1CCC(c2ccccc2)(c2ccccc2)CC1 [Budipine, 1-Tert-butyl-4,4-diphenylpiperidine]","akinesia, rigidity, and tremor",[2],"significantly reduces akinesia, rigidity, and tremor"
same,time to optimal effects after starting treatment,[2],4-6 weeks
O=C1CC2(CCCC2)CC(=O)N1CCCCN1CCN(c2ncccn2)CC1 [buspirone],treatment of Parkinson's disease,[3],ineffective
same,effect on dyskinesia,[4],no different than placebo
CN(C)CCCC1(c2ccc(F)cc2)OCc2cc(C#N)ccc21 (stereo not shown) [citalopram],motor symptoms,[5],worsened their motor symptoms
NC12CC3CC(CC(C3)C1)C2 [amantadine],UPDRS III scores (motor performance),[6],improvement in motor performance
same,"UPDRS IV scores (severity and characteristics of L-Dopa induced dyskinesias, motor fluctuations)",[6],improvement in motor fluctuations
same,neuropsychologic and psychiatric assessments,[7]; after 6 and 12 months of therapy,No changes
same,dyskinesias,"[7]; eight HD patients, oral amantadine 100 mg tid, unblinded, 1-year period, p<0.01",significant reduction of dyskinesias
